Reference: patent US7932242B2, “Substituted phenoxy-and phenylthio-derivatives for treating proliferative disorders” (Temple University - Of The Commonwealth System of Higher …, priority 2004, dated 2011)
Counter-ions that a name gives are not always drawn. Like-named read-outs stand apart in the source and are kept apart here.

Columns and labels:
Format in all cases: cell-based
[1] = tested on: DU145; assay: Tumor cell growth inhibition, Trypan blue exclusion, DU145; details: Homo sapiens, cell viability after 96 hours vs vehicle (DMSO)
Description: (§1) The effect of Compounds of Formula I on tumor cells of prostate, colon, lung, pancreatic, brain, renal, gastrointestinal, epidermal, lymphocytic, ovary and breast origin was examined by utilizing a variety of cancer cell lines (listed in Table 6). Cells were plated at density levels of 1.0×10^5 cells per well in six-well plates. Cell cultures were maintained at 37° C. in a humidified atmosphere of 5% CO2.
(§2) In addition, DU-145 cells were treated with three additional compounds of the invention: (E)-4-(3-(5-((2,4,6-trimethoxystyrylsulfonyl)methyl)-2-methoxyphenoxy)propyl)morpholine; (E)-5-((2,4,6-trimethoxystyrylsulfonyl)methyl)-2-methoxyphenyl 2-(dimethylamino)acetate; and (E)-5-((2,4,6-trimethoxystyrylsulfonyl)methyl)-2-methoxyphenyl 4-methylbenzenesulfonate, the structures of which are shown in Table 7.
(§3) Values are reported as the GI50, i.e., the concentration (μM) required for 50% growth inhibition as compared to vehicle (DMSO) treated cells. The notations “ER+” and “ER−” designate breast cancer lines that are responsive and non-responsive to estrogen, respectively. The notations “AR+” and “AR−” designate prostate cancer lines that are responsive and non-responsive to androgens, respectively. […] For cell lines designated by “*”, the dose response curve for the compound (E)-5-((2,4,6-trimethoxystyrylsulfonyl)methyl)-2-methoxyphenol (Example 1) is set forth in FIG. 1.

[2] = tested on: BT20; assay: Tumor cell growth inhibition, Trypan blue exclusion, BT20; details: Homo sapiens, BT-20; BT20, Breast (Er−); cell viability after 96 hours vs vehicle (DMSO)
Description: as §1, §2, §3

[3] = tested on: MIA-PACA2; assay: Tumor cell growth inhibition, Trypan blue exclusion, MIA-PACA2; details: Homo sapiens, MIA PaCa-2; MIA-PACA2, Pancreatic; cell viability after 96 hours vs vehicle (DMSO)
Description: as §1
(§4) Cells of 36 different cell lines were treated with (E)-5-((2,4,6-trimethoxystyrylsulfonyl)methyl)-2-methoxyphenol (Example 1) or (E)-5-((2,4,6-trimethoxystyrylsulfonyl)methyl)-2-methoxy-phenyl dihydrogen phosphate disodium salt (Example 5) at doses ranging from 2 nM to 10 nM concentration, and cell viability was determined after 96 hours by the Trypan blue exclusion method. In addition, DU-145 cells were treated with three additional compounds of the invention: (E)-4-(3-(5-((2,4,6-trimethoxystyrylsulfonyl)methyl)-2-methoxyphenoxy)propyl)morpholine; (E)-5-((2,4,6-trimethoxystyrylsulfonyl)methyl)-2-methoxyphenyl 2-(dimethylamino)acetate; and (E)-5-((2,4,6-trimethoxystyrylsulfonyl)methyl)-2-methoxyphenyl 4-methylbenzenesulfonate, the structures of which are shown in Table 7.
(§5) Values are reported as the GI50, i.e., the concentration (μM) required for 50% growth inhibition as compared to vehicle (DMSO) treated cells. […]

[4] = tested on: U87; assay: Tumor cell growth inhibition, Trypan blue exclusion, U87; details: Homo sapiens, U-87 MG; U87, Glioblastoma; cell viability after 96 hours vs vehicle (DMSO)
Description: as §1, §4, §5

[5] = tested on: H157; assay: Tumor cell growth inhibition, Trypan blue exclusion, H157; details: Homo sapiens, NCI-H157; H157, Nsclc; cell viability after 96 hours vs vehicle (DMSO)
Description: as §1, §4, §5

[6] = tested on: A549; assay: Tumor cell growth inhibition, Trypan blue exclusion, A549; details: Homo sapiens; A549, Nsclc; cell viability after 96 hours vs vehicle (DMSO)
Description: as §1, §4, §5

[7] = tested on: N417; assay: Tumor cell growth inhibition, Trypan blue exclusion, N417; details: N417, Sclc; cell viability after 96 hours vs vehicle (DMSO)
Description: as §1, §4, §5

[8] = tested on: AGS; assay: Tumor cell growth inhibition, Trypan blue exclusion, AGS; details: Homo sapiens, Gastric, cell viability after 96 hours vs vehicle (DMSO)
Description: as §1, §4, §5

[9] = tested on: DLD-1; assay: Tumor cell growth inhibition, Trypan blue exclusion, DLD-1; details: Homo sapiens; DLD-1, Colo-Rectal; cell viability after 96 hours vs vehicle (DMSO)
Description: as §1, §4, §5

[10] = tested on: HCT-15; assay: Tumor cell growth inhibition, Trypan blue exclusion, HCT-15; details: Homo sapiens; HCT-15, Colo-Rectal; cell viability after 96 hours vs vehicle (DMSO)
Description: as §1, §4, §5

[11] = tested on: SK-MEL-28; assay: Tumor cell growth inhibition, Trypan blue exclusion, SK-MEL-28; details: Homo sapiens; SK-MEL-28, Melanoma; cell viability after 96 hours vs vehicle (DMSO)
Description: as §1, §4, §5

[12] = tested on: T47D; assay: Tumor cell growth inhibition, Trypan blue exclusion, T47D; details: Homo sapiens, Breast (Er+), cell viability after 96 hours vs vehicle (DMSO)
Description: as §1, §4, §5

[13] = tested on: MCF-7; assay: Tumor cell growth inhibition, Trypan blue exclusion, MCF-7; details: Homo sapiens, MCF7; MCF-7, Breast (Er+); cell viability after 96 hours vs vehicle (DMSO)
Description: as §1, §4, §5

[14] = tested on: LNCAP; assay: Tumor cell growth inhibition, Trypan blue exclusion, LNCAP; details: Homo sapiens, Prostate (Ar+), cell viability after 96 hours vs vehicle (DMSO)
Description: as §1, §4, §5

[15] = tested on: PC-3; assay: Tumor cell growth inhibition, Trypan blue exclusion, PC-3; details: Homo sapiens; PC-3, Prostate; cell viability after 96 hours vs vehicle (DMSO)
Description: as §1, §4, §5

[16] = tested on: OV-CAR-3; assay: Tumor cell growth inhibition, Trypan blue exclusion, OV-CAR-3; details: Homo sapiens, OVCAR-3; OV-CAR-3, Ovarian; cell viability after 96 hours vs vehicle (DMSO)
Description: as §1, §4, §5

[17] = tested on: Sk-OV-3; assay: Tumor cell growth inhibition, Trypan blue exclusion, Sk-OV-3; details: Homo sapiens; Sk-OV-3, Ovarian; cell viability after 96 hours vs vehicle (DMSO)
Description: as §1, §4, §5

[18] = tested on: H187; assay: Tumor cell growth inhibition, Trypan blue exclusion, H187; details: Homo sapiens, NCI-H187; H187, Sclc; cell viability after 96 hours vs vehicle (DMSO)
Description: as §1, §4, §5

[19] = tested on: RF1; assay: Tumor cell growth inhibition, Trypan blue exclusion, RF1; details: RF1, Gastric; cell viability after 96 hours vs vehicle (DMSO)
Description: as §1, §4, §5

[20] = tested on: RF48; assay: Tumor cell growth inhibition, Trypan blue exclusion, RF48; details: RF48, Gastric; cell viability after 96 hours vs vehicle (DMSO)
Description: as §1, §4, §5

[21] = tested on: CAKI-2; assay: Tumor cell growth inhibition, Trypan blue exclusion, CAKI-2; details: Homo sapiens; CAKI-2, Renal; cell viability after 96 hours vs vehicle (DMSO)
Description: as §1, §4, §5

[22] = tested on: COLO-320; assay: Tumor cell growth inhibition, Trypan blue exclusion, COLO-320; details: Homo sapiens; COLO-320, Colo-Rectal; cell viability after 96 hours vs vehicle (DMSO)
Description: as §1, §4, §5

[23] = tested on: HCT-116; assay: Tumor cell growth inhibition, Trypan blue exclusion, HCT-116; details: Homo sapiens; HCT-116, Colo-Rectal; cell viability after 96 hours vs vehicle (DMSO)
Description: as §1, §4, §5

[24] = tested on: SW480; assay: Tumor cell growth inhibition, Trypan blue exclusion, SW480; details: Homo sapiens; SW480, Colo-Rectal; cell viability after 96 hours vs vehicle (DMSO)
Description: as §1, §4, §5

[25] = tested on: CEM; assay: Tumor cell growth inhibition, Trypan blue exclusion, CEM; details: Homo sapiens, CCRF-CEM, Leukemic, cell viability after 96 hours vs vehicle (DMSO)
Description: as §1, §4, §5

[26] = tested on: K562; assay: Tumor cell growth inhibition, Trypan blue exclusion, K562; details: Homo sapiens; K562, Cml; cell viability after 96 hours vs vehicle (DMSO)
Description: as §1, §4, §5

[27] = tested on: MOLT-4; assay: Tumor cell growth inhibition, Trypan blue exclusion, MOLT-4; details: Homo sapiens; MOLT-4, T-Lymphoblastic: All; cell viability after 96 hours vs vehicle (DMSO)
Description: as §1, §4, §5

[28] = tested on: Namalwa; assay: Tumor cell growth inhibition, Trypan blue exclusion, Namalwa; details: Burkitt's Lymphoma (B-Cell), cell viability after 96 hours vs vehicle (DMSO)
Description: as §1, §4, §5

[29] = tested on: Daudi; assay: Tumor cell growth inhibition, Trypan blue exclusion, Daudi; details: Homo sapiens, Burkitt's Lymphoma (B-Cell), cell viability after 96 hours vs vehicle (DMSO)
Description: as §1, §4, §5

[30] = tested on: Raji; assay: Tumor cell growth inhibition, Trypan blue exclusion, Raji; details: Homo sapiens, Burkitt's Lymphoma (B-Cell), cell viability after 96 hours vs vehicle (DMSO)
Description: as §1, §4, §5

[31] = tested on: Mes-Sa; assay: Tumor cell growth inhibition, Trypan blue exclusion, Mes-Sa; details: Homo sapiens, Sarcoma, cell viability after 96 hours vs vehicle (DMSO)
Description: as §1, §4, §5

[32] = tested on: Mes-Sa/Dx5; assay: Tumor cell growth inhibition, Trypan blue exclusion, Mes-Sa/Dx5; details: Homo sapiens; Mes-Sa/Dx5, Resistant Sarcoma; cell viability after 96 hours vs vehicle (DMSO)
Description: as §1, §4, §5

[33] = tested on: CEM; assay: Tumor cell growth inhibition, Trypan blue exclusion, Cem (second listing); details: Homo sapiens, Leukemic (second listing, parent of Cem/C2), cell viability after 96 hours vs vehicle (DMSO)
Description: as §1, §4, §5

[34] = tested on: Cem/C2; assay: Tumor cell growth inhibition, Trypan blue exclusion, Cem/C2; details: Homo sapiens; Cem/C2, Resistant Leukemic; cell viability after 96 hours vs vehicle (DMSO)
Description: as §1, §4, §5

[35] = tested on: 2008; assay: Tumor cell growth inhibition, Trypan blue exclusion, 2008; details: 2008, Ovarian; cell viability after 96 hours vs vehicle (DMSO)
Description: as §1, §4, §5

[36] = tested on: 2008/17/4; assay: Tumor cell growth inhibition, Trypan blue exclusion, 2008/17/4; details: 2008/17/4, Resistant Ovarian; cell viability after 96 hours vs vehicle (DMSO)
Description: as §1, §4, §5

[37] = DU-145 cells, Table 7, read-out: DU-145 GI50
[38] = DU-145, DU145, Prostate (Ar−), read-out: GI50

COc1cc(OC)c(/C=C/S(=O)(=O)Cc2ccc(OC)c(OC(=O)CN(C)C)c2)c(OC)c1 [(E)-5-((2,4,6-trimethoxystyrylsulfonyl)methyl)-2-methoxyphenyl 2-(dimethylamino)acetate]
GI50 [1, 37]: 4 to 10 nM

COc1cc(OC)c(/C=C/S(=O)(=O)Cc2ccc(OC)c(OP(=O)(O)O)c2)c(OC)c1 [Example 5, (E)-5-((2,4,6-trimethoxystyrylsulfonyl)methyl)-2-methoxyphenyl dihydrogen phosphate, disodium salt]
GI50 [2]: 8 nM
GI50 [1, 38]: 5 nM
GI50 [3]: 4 nM
GI50 [4]: 9 nM
GI50 [5]: 12 nM
GI50 [6]: 20 nM
GI50 [7]: 4 nM
GI50 [8]: 9 nM
GI50 [9]: 12 nM
GI50 [10]: 12 nM
GI50 [11]: 12 nM

COc1cc(OC)c(/C=C/S(=O)(=O)Cc2ccc(OC)c(O)c2)c(OC)c1 [Example 1, (E)-5-((2,4,6-trimethoxystyrylsulfonyl)methyl)-2-methoxyphenol]
GI50 [2]: 80 nM
GI50 [12]: 10 nM
GI50 [13]: 10 nM
GI50 [1, 38]: 5 nM
GI50 [14]: 10 nM
GI50 [15]: 5 nM
GI50 [16]: 30 nM
GI50 [17]: 4 nM
GI50 [3]: 3 nM
GI50 [4]: 7 nM
GI50 [5]: 7 nM
GI50 [6]: 10 nM
GI50 [18]: 3 nM
GI50 [7]: 3 nM
GI50 [8]: 5 nM
GI50 [19]: 3 nM
GI50 [20]: 1 nM
GI50 [21]: 6 nM
GI50 [22]: 3 nM
GI50 [9]: 7 nM
GI50 [23]: 6 nM
GI50 [10]: 7 nM
GI50 [24]: 5 nM
GI50 [11]: 7 nM
GI50 [25]: 4 nM
GI50 [26]: 4 nM
GI50 [27]: 3 nM
GI50 [28]: 3 nM
GI50 [29]: 3 nM
GI50 [30]: 1 nM
GI50 [31]: 5 nM
GI50 [32]: 5 nM
GI50 [33]: 4 nM
GI50 [34]: 3 nM
GI50 [35]: 5 nM
GI50 [36]: 6 nM

COc1cc(OC)c(/C=C/S(=O)(=O)Cc2ccc(OC)c(OS(=O)(=O)c3ccc(C)cc3)c2)c(OC)c1 [(E)-5-((2,4,6-trimethoxystyrylsulfonyl)methyl)-2-methoxyphenyl 4-methylbenzenesulfonate]
GI50 [1, 37]: > 1000 nM

COc1cc(OC)c(/C=C/S(=O)(=O)Cc2ccc(OC)c(OCCCN3CCOCC3)c2)c(OC)c1 [(E)-4-(3-(5-((2,4,6-trimethoxystyrylsulfonyl)methyl)-2-methoxyphenoxy)propyl)morpholine]
GI50 [1, 37]: > 10000 nM
